Results published in patent US12564638B2 (SHANGHAITECH UNIVERSITY, priority 2019, dated 2026).
Read-outs that look alike come from different tables or passages of the source.

Columns and labels:
Format in all cases: cell-based
[1] = system: HCC827 cells (EGFR Exon19 del, non-small cell lung cancer cells); assay: Cell viability assay (WST/CCK8), HCC827 cells; conditions: Homo sapiens, HCC827, 72 h, HCC827 (Exon19 Del), 72 hours, read-out: IC50 (half inhibitory concentration)
How it was run: (§1)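 Plated 3 000 cells/well in complete RPMI1640 the day before dosing; controls were DMSO (negative) and EGFR TKIs (positive).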

[2] = system: PC9 DCT (Del19+T790M+C797S) cells; assay: Cell viability assay, PC9 cells with EGFR triple mutation; conditions: Homo sapiens, PC-9; Table 9; PC9 (Del + T790M + C797S), EGFR triple mutations; read-out: IC50 (half inhibitory concentration)
Description: Construction of EGFR triple mutant cell line PC9 DCT (Dell9+T790M+C797S): The cDNA expressing human EGFR was cloned into pLVX vector, and exon 19 deletion mutation (746-750) and T790M mutation were introduced by point mutation and C797S mutation. Transferred into PC9 cells by lentiviral packaging. Cells stably expressing EGFR triple mutations were obtained by fluorescence screening.
The cDNA sequence expressing human EGFR was cloned into a pLVX vector (GFP^+), and then introduce the EGFR exon 19 deletion (746-750), exon 20 T790M and C797S mutations by were generated by site-directed mutagenesis. The PC9 cells were infected with lentivirus containing the indicated EGFR mutations, and the cells stably expressing EGFR triple mutation were obtained by fluorescence screening.
All of the half inhibitory concentrations (IC50) of these compounds of the present invention were determined with WST reagent from Fuyuan Biotec Company. The specific experiment procedures are as follows: Cancer cells were planted in 96-well-plate at the density of 3 000 cells per well with 100 μL RPMI1640 completed culture medium. In the next day, compounds with indicated concentrations were added to the cells, DMSO was used as the negative control and the EGFR TKIs were used to treat cells as the positive groups. After 72 hours drug treatment, cell viability was measured by using the WST reagent following the instructions. The growth inhibition curve of the compounds on cells were plotted by Prism GraphPad, and the compounds IC50 calculated from it.
The cell viability assays were taken to determine the anti-tumor activity of these indicated compounds in PC9 cells, which overexpressed Exon 19del+T790M+C797S triple mutant EGFR.

[3] = system: H1975 (EGFR T790M+L858R mutation, non-small cell lung cancer cell line); assay: Cell viability assay (WST/CCK8), H1975 cells; conditions: Homo sapiens, NCI-H1975; Table 7, canertinib-based compounds; H1975 (L858R + T790M); read-out: IC50 (half inhibitory concentration)
How it was run: (§2)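 Cells seeded at 3 000 per well in RPMI1640 complete medium, dosed next day with compounds at indicated concentrations (DMSO negative control, EGFR TKIs as positive control).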

[4] = system: PC9 cells (EGFR Exon 19 del, non-small cell lung cancer cells); assay: Cell viability assay (WST/CCK8), PC9 cells; conditions: Homo sapiens, PC-9; Table 6, canertinib-based compounds; PC9 (Exon19 Del); 72 hours; WST; read-out: IC50 (half inhibitory concentration)
How it was run: as §1

[5] = system: PC9BracA1 (EGFR Exon 19 del+T790M, non-small cell lung cancer cells); assay: Cell viability assay (WST/CCK8), PC9Brac1 cells; conditions: Table 7, canertinib-based compounds; PC9Brca1 (Ex19del + T790M); read-out: IC50 (half inhibitory concentration)
How it was run: as §2

[6] = system: BT474 cells (HER2 positive breast cancer cells); assay: Cell viability assay (CCK8), BT474 cells; conditions: Homo sapiens, BT-474, Table 10, BT474, 72 hours, read-out: IC50 (half inhibitory concentration)
How it was run: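 HER2-overexpressing BT474 cells in RPMI1640 were exposed to compounds for 72 hours over 10 concentrations (3-fold dilution, top 10 μM). Viability was measured with CCK8 reagent against a DMSO control, and IC50 was taken from growth inhibition curves.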

[7] = Table 3, poziotinib-based compounds, WST (CCK8)
[8] = Table 6, canertinib-based compounds, WST

Row | IC50 [1, 7] [nM] | IC50 [2] [nM] | IC50 [3] [nM] | IC50 [4] [nM] | IC50 [1, 8] [nM] | IC50 [5] [nM] | IC50 [6] [nM] | Structure (SMILES)
1 | – | – | 413 | 2.6 | 10.3 | 419 | 16.4 | C=CC(=O)Nc1cc2c(Nc3ccc(F)c(Cl)c3)ncnc2cc1OCCCN1CCN(C(=O)CNc2cccc3c2C(=O)N(C2CCC(=O)NC2=O)C3=O)CC1 (stereo not shown) [SIAIS262124, N-(4-((3-chloro-4-fluorophenyl)amino)-7-(3-(4-(2-((2-(2,6-dioxopiperidin-3-yl)-1,3-dioxoisoindolin-4-yl)amino)acetyl)piperazin-1-yl)propoxy)quinazolin-6-yl)acrylamide]
2 | – | – | 20 | 2.3 | 2.5 | 85 | 17.6 | C=CC(=O)Nc1cc2c(Nc3ccc(F)c(Cl)c3)ncnc2cc1OCCCN1CCN(C(=O)CCCCCCNc2cccc3c2C(=O)N(C2CCC(=O)NC2=O)C3=O)CC1 (stereo not shown) [SIAIS262126, N-(4-((3-chloro-4-fluorophenyl)amino)-7-(3-(4-(7-((2-(2,6-dioxopiperidin-3-yl)-1,3-dioxoisoindolin-4-yl)amino)heptanoyl)piperazin-1-yl)propoxy)quinazolin-6-yl)acrylamide]
3 | – | – | 287 | 16.7 | 11 | 267 | 28.2 | C=CC(=O)Nc1cc2c(Nc3ccc(F)c(Cl)c3)ncnc2cc1OCCCN1CCC(N2CCN(C(=O)CSc3cccc4c3CN(C3CCC(=O)NC3=O)C4=O)CC2)CC1 (stereo not shown) [SIAIS262174, N-(4-((3-chloro-4-fluorophenyl)amino)-7-(3-(4-(4-(2-((2-(2,6-dioxopiperidin-3-yl)-1-oxoisoindolin-4-yl)thio)acetyl)piperazin-1-yl)piperidin-1-yl)propoxy)quinazolin-6-yl)acrylamide]
4 | – | – | 67 | 15.8 | 3.3 | 472 | 1.4 | C=CC(=O)Nc1cc2c(Nc3ccc(F)c(Cl)c3)ncnc2cc1OCCCN1CCC(N2CCN(C(=O)CCCCCSc3cccc4c3CN(C3CCC(=O)NC3=O)C4=O)CC2)CC1 (stereo not shown) [SIAIS262176, N-(4-((3-chloro-4-fluorophenyl)amino)-7-(3-(4-(4-(6-((2-(2,6-dioxopiperidin-3-yl)-1-oxoisoindolin-4-yl)thio)hexanoyl)piperazin-1-yl)piperidin-1-yl)propoxy)quinazolin-6-yl)acrylamide]
5 | – | – | 654 | 3.4 | 5.7 | 209 | 8.2 | C=CC(=O)Nc1cc2c(Nc3ccc(F)c(Cl)c3)ncnc2cc1OCCCN1CCC(N2CCN(C(=O)CNc3cccc4c3C(=O)N(C3CCC(=O)NC3=O)C4=O)CC2)CC1 (stereo not shown) [SIAIS262177, N-(4-((3-chloro-4-fluorophenyl)amino)-7-(3-(4-(4-(2-((2-(2,6-dioxopiperidin-3-yl)-1,3-dioxoisoindolin-4-yl)amino)acetyl)piperazin-1-yl)piperidin-1-yl)propoxy)quinazolin-6-yl)acrylamide]
6 | – | – | 38 | 0.4 | 5.2 | 69 | 2.1 | C=CC(=O)Nc1cc2c(Nc3ccc(F)c(Cl)c3)ncnc2cc1OCCCN1CCC(N2CCN(C(=O)CCCCCNc3cccc4c3C(=O)N(C3CCC(=O)NC3=O)C4=O)CC2)CC1 (stereo not shown) [SIAIS262178, N-(4-((3-chloro-4-fluorophenyl)amino)-7-(3-(4-(4-(6-((2-(2,6-dioxopiperidin-3-yl)-1,3-dioxoisoindolin-4-yl)amino)hexanoyl)piperazin-1-yl)piperidin-1-yl)propoxy)quinazolin-6-yl)acrylamide]
7 | – | – | 43 | 10.3 | 2.5 | 181 | 14.6 | C=CC(=O)Nc1cc2c(Nc3ccc(F)c(Cl)c3)ncnc2cc1OCCCN1CCC(N2CCN(C(=O)CCCCCCNc3cccc4c3C(=O)N(C3CCC(=O)NC3=O)C4=O)CC2)CC1 (stereo not shown) [SIAIS262179, N-(4-((3-chloro-4-fluorophenyl)amino)-7-(3-(4-(4-(7-((2-(2,6-dioxopiperidin-3-yl)-1,3-dioxoisoindolin-4-yl)amino)heptanoyl)piperazin-1-yl)piperidin-1-yl)propoxy)quinazolin-6-yl)acrylamide]

Second part, the molecule before the results:

Row | Structure (SMILES) | IC50 [1, 7] [nM] | IC50 [2] [nM] | IC50 [3] [nM] | IC50 [4] [nM] | IC50 [1, 8] [nM] | IC50 [5] [nM] | IC50 [6] [nM]
8 | COc1cc2ncnc(Nc3ccc(Cl)c(Cl)c3F)c2cc1OC1CCN(C(=O)CSc2cccc3c2CN(C2CCC(=O)NC2=O)C3=O)CC1 (stereo not shown) [SIAIS219164, 3-(4-((2-(4-((4-((3,4-dichloro-2-fluorophenyl)amino)-7-methoxyquinazolin-6-yl)oxy)piperidin-1-yl)-2-oxoethyl)thio)-1-oxoisoindolin-2-yl)piperidine-2,6-dione] | 33 | 4.8 | – | – | – | – | –
9 | COc1cc2ncnc(Nc3ccc(Cl)c(Cl)c3F)c2cc1OC1CCN(C(=O)CCCSc2cccc3c2CN(C2CCC(=O)NC2=O)C3=O)CC1 (stereo not shown) [SIAIS219166, 3-(4-((4-(4-((4-((3,4-dichloro-2-fluorophenyl)amino)-7-methoxyquinazolin-6-yl)oxy)piperidin-1-yl)-4-oxobutyl)thio)-1-oxoisoindolin-2-yl)piperidine-2,6-dione] | 30 | 4.6 | – | – | – | – | –
10 | COc1cc2ncnc(Nc3ccc(Cl)c(Cl)c3F)c2cc1OC1CCN(C(=O)CCCCSc2cccc3c2CN(C2CCC(=O)NC2=O)C3=O)CC1 (stereo not shown) [SIAIS219167, 3-(4-((5-(4-((4-((3,4-dichloro-2-fluorophenyl)amino)-7-methoxyquinazolin-6-yl)oxy)piperidin-1-yl)-5-oxopentyl)thio)-1-oxoisoindolin-2-yl)piperidine-2,6-dione] | 31 | 4.1 | – | – | – | – | –
11 | COc1cc2ncnc(Nc3ccc(Cl)c(Cl)c3F)c2cc1OC1CCN(C(=O)CCCCCSc2cccc3c2CN(C2CCC(=O)NC2=O)C3=O)CC1 (stereo not shown) [SIAIS219168, 3-(4-((6-(4-((4-((3,4-dichloro-2-fluorophenyl)amino)-7-methoxyquinazolin-6-yl)oxy)piperidin-1-yl)-6-oxohexyl)thio)-1-oxoisoindolin-2-yl)piperidine-2,6-dione] | 40 | 2.9 | – | – | – | – | –
12 | COc1cc2ncnc(Nc3ccc(Cl)c(Cl)c3F)c2cc1OC1CCN(C(=O)CCCCCCSc2cccc3c2CN(C2CCC(=O)NC2=O)C3=O)CC1 (stereo not shown) [SIAIS219169, 3-(4-((7-(4-((4-((3,4-dichloro-2-fluorophenyl)amino)-7-methoxyquinazolin-6-yl)oxy)piperidin-1-yl)-7-oxoheptyl)thio)-1-oxoisoindolin-2-yl)piperidine-2,6-dione] | 38 | 3.6 | – | – | – | – | –
13 | COc1cc2ncnc(Nc3ccc(Cl)c(Cl)c3F)c2cc1OC1CCN(C(=O)CCCNc2cccc3c2C(=O)N(C2CCC(=O)NC2=O)C3=O)CC1 (stereo not shown) [SIAIS219179, 4-((4-(4-((4-((3,4-dichloro-2-fluorophenyl)amino)-7-methoxyquinazolin-6-yl)oxy)piperidin-1-yl)-4-oxobutyl)amino)-2-(2,6-dioxopiperidin-3-yl)isoindoline-1,3-dione] | 20.2 | 3.9 | – | – | – | – | –
14 | C=CC(=O)Nc1cc2c(Nc3ccc(F)c(Cl)c3)ncnc2cc1OCCCN1CCN(CCCCC#CC2c3ccccc3C(=O)N2C2CCC(=O)NC2=O)CC1 (stereo not shown) [SIAIS262131, N-(4-((3-chloro-4-fluorophenyl)amino)-7-(3-(4-(6-(2-(2,6-dioxopiperidin-3-yl)-3-oxoisoindolin-1-yl)hex-5-yn-1-yl)piperazin-1-yl)propoxy)quinazolin-6-yl)acrylamide] | – | – | 45 | 29.3 | 1.2 | 216 | 5.1
